ChEMBL document CHEMBL4813918, “From off-to on-target: New BRAF-inhibitor-template-derived compounds selectively targeting mitogen activated protein kinase kinase 4 (MKK4)” (Eur J Med Chem, 2021)

Columns and labels:
[1] = target: T1, Dual specificity mitogen-activated protein kinase kinase 7 (Homo sapiens) (UniProt O14733); assay: Binding affinity to wild type full length human MKK7 (M1 to R419 residues) expressed in mammalian expression system assessed as residual activity at 100 nM measured by Kinomescan assay
T1 sequence (whole entry): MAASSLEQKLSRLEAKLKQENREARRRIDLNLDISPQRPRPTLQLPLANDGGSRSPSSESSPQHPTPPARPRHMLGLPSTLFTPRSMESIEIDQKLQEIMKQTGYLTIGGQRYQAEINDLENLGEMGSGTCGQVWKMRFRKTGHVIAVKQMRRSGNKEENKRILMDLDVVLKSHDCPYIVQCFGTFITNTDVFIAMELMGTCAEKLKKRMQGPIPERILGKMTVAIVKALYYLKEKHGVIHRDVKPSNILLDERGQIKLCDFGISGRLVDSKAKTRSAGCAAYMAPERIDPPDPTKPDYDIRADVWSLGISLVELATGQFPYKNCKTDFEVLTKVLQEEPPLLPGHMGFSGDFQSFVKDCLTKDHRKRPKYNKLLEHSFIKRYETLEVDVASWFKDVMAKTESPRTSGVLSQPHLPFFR

[2] = target: Mitogen-activated protein kinase kinase kinase kinase 5 (Homo sapiens) (UniProt Q9Y4K4); assay: Binding affinity to wild type partial length human MAP4K5 (M1 to P297) expressed in Bacterial expression system assessed as residual activity at 100 nM measured by Kinomescan assay relative to control
[3] = target: Mitogen-activated protein kinase kinase kinase 20 (Homo sapiens) (UniProt Q9NYL2); assay: Binding affinity to wild type partial length human ZAK (M1 to L331) expressed in bacterial expression system assessed as residual activity at 100 nM measured by Kinomescan assay
Chain of Mitogen-activated protein kinase kinase kinase 20 (Homo sapiens) (Q9NYL2 2-800 limits assumed): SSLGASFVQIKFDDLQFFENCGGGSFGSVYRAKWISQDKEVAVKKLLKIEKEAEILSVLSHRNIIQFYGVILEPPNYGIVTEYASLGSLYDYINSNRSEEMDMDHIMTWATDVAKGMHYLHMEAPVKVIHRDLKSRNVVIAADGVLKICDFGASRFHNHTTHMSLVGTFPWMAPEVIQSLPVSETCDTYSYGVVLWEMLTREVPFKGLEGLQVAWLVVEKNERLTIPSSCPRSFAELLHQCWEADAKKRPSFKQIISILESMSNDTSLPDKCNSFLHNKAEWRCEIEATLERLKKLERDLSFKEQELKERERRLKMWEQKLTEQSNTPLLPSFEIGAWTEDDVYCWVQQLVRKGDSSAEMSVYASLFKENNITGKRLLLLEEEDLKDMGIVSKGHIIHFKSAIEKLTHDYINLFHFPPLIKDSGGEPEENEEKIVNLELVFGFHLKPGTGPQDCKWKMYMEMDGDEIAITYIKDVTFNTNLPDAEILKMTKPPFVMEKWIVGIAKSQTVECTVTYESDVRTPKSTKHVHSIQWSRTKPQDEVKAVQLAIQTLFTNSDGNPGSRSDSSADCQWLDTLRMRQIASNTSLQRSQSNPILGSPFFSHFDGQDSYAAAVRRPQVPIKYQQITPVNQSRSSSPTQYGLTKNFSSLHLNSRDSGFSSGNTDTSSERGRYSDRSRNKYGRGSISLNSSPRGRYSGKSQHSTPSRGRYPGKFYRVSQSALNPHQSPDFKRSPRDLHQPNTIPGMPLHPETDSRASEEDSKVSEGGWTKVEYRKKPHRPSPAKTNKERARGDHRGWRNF

Chain of Mitogen-activated protein kinase kinase kinase kinase 5 (Homo sapiens) (Q9Y4K4 whole entry, looked up): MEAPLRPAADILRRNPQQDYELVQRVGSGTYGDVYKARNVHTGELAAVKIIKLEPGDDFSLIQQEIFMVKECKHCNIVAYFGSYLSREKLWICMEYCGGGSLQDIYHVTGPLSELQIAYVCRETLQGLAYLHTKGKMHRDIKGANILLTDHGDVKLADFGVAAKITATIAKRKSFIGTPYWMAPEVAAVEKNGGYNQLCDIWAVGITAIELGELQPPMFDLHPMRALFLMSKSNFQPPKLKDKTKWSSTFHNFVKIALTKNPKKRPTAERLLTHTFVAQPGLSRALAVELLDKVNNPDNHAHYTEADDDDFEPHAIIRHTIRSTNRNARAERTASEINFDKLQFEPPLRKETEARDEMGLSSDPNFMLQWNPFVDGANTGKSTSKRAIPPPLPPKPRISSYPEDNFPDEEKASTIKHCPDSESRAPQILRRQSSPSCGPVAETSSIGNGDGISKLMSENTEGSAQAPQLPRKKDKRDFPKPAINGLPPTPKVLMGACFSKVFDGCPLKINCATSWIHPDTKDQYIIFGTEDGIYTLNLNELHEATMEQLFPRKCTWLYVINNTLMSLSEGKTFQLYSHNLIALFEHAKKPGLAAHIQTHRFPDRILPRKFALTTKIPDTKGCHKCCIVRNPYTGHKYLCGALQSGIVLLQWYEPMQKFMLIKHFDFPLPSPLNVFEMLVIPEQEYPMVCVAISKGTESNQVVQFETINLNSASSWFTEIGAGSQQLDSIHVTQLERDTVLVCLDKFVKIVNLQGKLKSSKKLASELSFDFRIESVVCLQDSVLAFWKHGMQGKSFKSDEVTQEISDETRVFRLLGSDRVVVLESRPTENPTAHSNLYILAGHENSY

Activity [1] | Activity [2] | Activity [3] | Structure (SMILES)
100% | 100% | 18% | CCCS(=O)(=O)Nc1ccc(F)c(C(=O)c2c[nH]c3ncc(-c4ccc(OC)cc4Cl)cc23)c1F
100% | 100% | 19% | CCCS(=O)(=O)Nc1ccc(F)c(C(=O)c2c[nH]c3ncc(-c4ccc(F)cc4Cl)cc23)c1F
100% | 43% | 16% | CCCS(=O)(=O)Nc1ccc(F)c(C(=O)c2c[nH]c3ncc(-c4ccccc4OC)cc23)c1F
93% |  | 5.9% | CCCS(=O)(=O)Nc1ccc(F)c(C(=O)c2c[nH]c3ncc(-c4ccc(F)cc4F)cc23)c1F
97% |  | 13% | CCCS(=O)(=O)Nc1ccc(F)c(C(=O)c2c[nH]c3ncc(-c4ccc(OC)cc4C)cc23)c1F
85% |  | 2.2% | CCCS(=O)(=O)Nc1ccc(F)c(C(=O)c2c[nH]c3ncc(-c4cccc(Cl)c4)cc23)c1F
86% |  | 2.9% | CCCS(=O)(=O)Nc1ccc(F)c(C(=O)c2c[nH]c3ncc(-c4ccccc4F)cc23)c1F
85% |  | 6% | CCCS(=O)(=O)Nc1ccc(F)c(C(=O)c2c[nH]c3ncc(-c4ccc(OC)cc4F)cc23)c1F

The next lines start with the compound.

Structure (SMILES) | Activity [1] | Activity [2] | Activity [3]
CCCS(=O)(=O)Nc1ccc(F)c(C(=O)c2c[nH]c3ncc(-c4ccco4)cc23)c1F | 95% | 78% | 2.1%
Oc1ccc(-c2ncnc3[nH]c4ccc(O)cc4c23)cc1 | 100% | 92% | 84%
Cc1cc(F)ccc1-c1cnc2[nH]cc(C(=O)c3cccc(NS(=O)(=O)Cc4ccccc4)c3F)c2c1 | 98% | 97% | 90%
O=C(c1c(F)ccc(NS(=O)(=O)CCCF)c1F)c1c[nH]c2ncc(-c3ccc(Cl)cc3)cc12 | 100% | 80% | 1.4%
CCCCCS(=O)(=O)Nc1ccc(F)c(C(=O)c2c[nH]c3ncc(-c4ccc(Cl)cc4)cc23)c1F | 89% | 98% | 55%
O=C(c1cccc(NS(=O)(=O)Cc2ccccc2)c1F)c1c[nH]c2ncc(-c3ccncc3)cc12 | 95% | 26% | 0.95%
CCCCS(=O)(=O)Nc1ccc(F)c(C(=O)c2c[nH]c3ncc(-c4ccc(Cl)cc4)cc23)c1F | 100% | 75% | 29%
CS(=O)(=O)Nc1ccc(F)c(C(=O)c2c[nH]c3ncc(-c4ccc(Cl)cc4)cc23)c1F | 87% | 63% | 2.6%
O=C(c1c(F)ccc(NS(=O)(=O)c2ccccc2)c1F)c1c[nH]c2ncc(-c3ccc(Cl)cc3)cc12 | 83% | 83% | 4.9%
CCCS(=O)(=O)Nc1ccc(F)c(C(=O)c2c[nH]c3ncc(-c4ccc(OC)cc4)cc23)c1F | 70% | 38% | 
O=C(c1c(F)ccc(NS(=O)(=O)Cc2cccc(F)c2)c1F)c1c[nH]c2ncc(-c3ccc(Cl)cc3)cc12 | 99% |  | 36%
CCCS(=O)(=O)Nc1cccc(C(=O)c2c[nH]c3ncc(-c4ccc(Cl)cc4)cc23)c1 | 100% | 44% | 
Cc1ccc(CS(=O)(=O)Nc2ccc(F)c(C(=O)c3c[nH]c4ncc(-c5ccc(Cl)cc5)cc34)c2F)cc1 | 90% |  | 87%
O=C(c1c(F)ccc(NS(=O)(=O)Cc2ccc(F)cc2)c1F)c1c[nH]c2ncc(-c3ccc(Cl)cc3)cc12 | 100% |  | 61%
Cc1cccc(CS(=O)(=O)Nc2ccc(F)c(C(=O)c3c[nH]c4ncc(-c5ccc(Cl)cc5)cc34)c2F)c1 | 100% |  | 64%
CCCS(=O)(=O)Nc1cccc(C(=O)c2c[nH]c3ncc(-c4ccc(Cl)cc4)cc23)c1C | 91% | 40% | 
O=C(c1c(F)ccc(NS(=O)(=O)Cc2ccccc2F)c1F)c1c[nH]c2ncc(-c3ccc(Cl)cc3)cc12 | 97% |  | 23%
